From the NIST ThermoML archive (doi:10.1021/je9003959)

Assay: refractive index (Na D-line) (dimensionless); xn = mol fraction of the nth substance listed
Conditions: 101 kPa, Liquid, Standard Abbe refractometry

CCN1CCCC1=O [1-ethyl-2-pyrrolidinone] + O
refractive index
Conditions	293 K	298 K	303 K	313 K	323 K
x1 = 0.022	1.35197	1.35144	1.34954	1.3488	1.34707
x1 = 0.05	1.37085	1.37012	1.3694	1.36692	1.36431
x1 = 0.1	1.39584	1.39478	1.39291	1.39022	1.38757
x1 = 0.2	1.42603	1.42432	1.42304	1.41887	1.41711
x1 = 0.3	1.44127	1.43983	1.43715	1.4331	1.42913
x1 = 0.4	1.44975	1.44776	1.44605	1.4418	1.43762
x1 = 0.5	1.4551	1.45307	1.45147	1.44694	1.44273
x1 = 0.6	1.45859	1.45647	1.45435	1.45035	1.44622
x1 = 0.7	1.46118	1.459	1.4568	1.4527	1.44864
x1 = 0.8	1.46326	1.46096	1.4586	1.45496	1.45075
x1 = 0.9	1.46478	1.4623	1.46016	1.45641	1.45217
x1 = 1	1.46461	1.46192	1.45791	1.45415	1.45147
